# From ChEMBL document CHEMBL3638916, “Substituted 3-arylsulfonyl-pyrazolo[1,5-A]pyrimidines, serotonin 5-HT6 receptor antagonists and methods for the production and use thereof” (2013)
# What was measured:
# [1] = molecular target: T1, 5-hydroxytryptamine receptor 6 (Homo sapiens, UniProt P50406); experiment: Mol. Pharmacol. 43:320-327, 1993].
# [2] = molecular target: T1, 5-hydroxytryptamine receptor 6; experiment: Functional Assay: Determination of antagonistic activity of compounds of the general formula 1 towards 5-HT6 receptors. Compounds of the general formula 1 were tested for their ability to prevent 5-HT6 receptors activation by serotonin. HEK 293 cells (cells of human embryo's kidney) with artificially expressed 5-HT6 receptor, activation of which by serotonin leads to increasing the concentration of intracellular cAMP, were used. The level of intracellular cAMP was determined using reagent kit LANCE cAMP (PerkinElmer) according to the method described by the manufacturer of the kit [http://las.perkinelmer.com/content/Manuals/MAN_LANCEcAMP384KitUser.pdf]. Effectiveness of the compounds was estimated by their ability to reduce the level of intracellular cAMP induced by serotonin. Table 4 presents IC50 values for the compounds of general formula 1 in the setting of functional assay for serotonin 5-HT6 receptor inhibition. The data given testify their moderate or high antagonistic activity.; type: cell-based
# T1 sequence (P50406 whole entry): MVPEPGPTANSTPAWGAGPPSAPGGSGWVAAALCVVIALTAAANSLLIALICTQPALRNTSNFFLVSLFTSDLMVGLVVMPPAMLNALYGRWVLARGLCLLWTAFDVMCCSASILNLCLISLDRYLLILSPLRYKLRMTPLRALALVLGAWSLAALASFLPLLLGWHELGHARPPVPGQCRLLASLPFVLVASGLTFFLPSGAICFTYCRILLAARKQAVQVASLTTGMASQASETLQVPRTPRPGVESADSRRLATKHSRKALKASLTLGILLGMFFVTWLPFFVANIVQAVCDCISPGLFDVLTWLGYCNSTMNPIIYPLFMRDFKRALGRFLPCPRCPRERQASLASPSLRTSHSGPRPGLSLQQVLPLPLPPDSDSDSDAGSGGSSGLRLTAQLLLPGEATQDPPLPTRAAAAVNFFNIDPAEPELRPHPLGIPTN
compound,measurement,setting,value
CSc1nn2c(C)c(Br)c(C)nc2c1S(=O)(=O)c1ccccc1,IC50,[1],0.05 µM
same,IC50,[2],8.4 µM
